One assay has as its system NSCLC adenocarcinoma. As to the kind of experiment: Phase 1 overall response versus H score. In kind it is in vivo, human. The conditions noted are these: IHC scores of 225 or greater. From the text:
(§1) The IHC score was obtained using the protocol described in Example 17.

The test system of assay [1] is NSCLC squamous cell carcinoma. Description: Phase 1 overall response versus H score. The conditions noted are these: three patients, 2.7 mg/kg once every 3 weeks, IHC scores between 150 to 224. The format is in vivo, human.
Description: as §1

In assay [2] the test system is Hs746T gastric cancer xenografts. As to the kind of experiment: Hs746T xenograft efficacy.
Description: Female SCID, SCID-Beige and nude mice were obtained from Charles River (Wilmington, Mass.) and housed at ten mice per cage. The body weight upon arrival was 20-22 g. Food and water were available ad libitum. Mice were acclimated to the animal facilities for a period of at least one week prior to commencement of experiments. Animals were tested in the light phase of a 12-hr light: 12-hr dark schedule (lights on at 06:00 hours).
Tumor volumes are depicted as mean±S.E.M.
The test system of a further assay is cMet+ NSCLC. Description: Phase 1 monotherapy in cMet+ NSCLC, best response. In kind it is in vivo, human. On the procedure:
A dose of 2.7 mg/kg was chosen for dose-expansion based primarily on safety and tolerability. For enrollment in this phase of the study, NSCLC subjects were screened for cMet overexpression using an IHC assay utilizing the CONFIRM anti-total cMet (SP44) Rabbit Monoclonal Primary Antibody kit purchased from Ventana (REF #790-4430). Tissue samples were scored by determining the percentages of target tissue cells staining at various intensity levels of low to high, i.e. IHC score of 0, 1+, 2+ or 3+ or an H-score of 0 to 149, 150-224, or 225-300. The scoring can be done either manually or via the aid of a computer. Details of the IHC assay and scoring are described in Example 17.

Assay [3] relates to LG1049 patient-derived xenograft. Description: NSCLC patient-derived xenograft, Kaplan-Meier. The format is in vivo, NSG mice. The conditions noted are these: ABBV-399 every four days x6, ABT-700 every seven days x6, FIGS. 10A-10B. An excerpt: Tumor fragments of 3 to 5 mm^3 at passage 3 (P3) were implanted subcutaneously in the right rear flank of NSG mice (The Jackson Laboratory) with a trochar. For all groups, tumor volumes were plotted only for the duration that allowed the full set of animal to remain on study. If animals had to be taken off study, the remaining animals were monitored for tumor growth until they reached defined end-points. Efficacy is depicted on a Kaplan-Meier plot for (A) LG0703 and (B) LG1049 models as fractions reaching the indicated tumors volumes following therapy.

Assay [4] relates to EBC-1 ABT-700R xenograft tumors. Description: ABT-700-refractory xenograft efficacy. The conditions noted are these: EBC-1, ABT-700 followed by ABBV-399; FIG. 12C. In kind it is in vivo, mice.
Assay [5] deals with NCI-H441 lung cancer xenografts. Description: NCI-H441 xenograft efficacy. The format is in vivo, mice. The conditions noted are these: both every four days, six doses; dose-dependent; FIG. 11B. An excerpt: Food and water were available ad libitum.
Each experimental group included 8-10 animals.

Another assay deals with NCI-H820. As to the kind of experiment: Cytotoxicity assay (CellTiter-Glo, 6 days). The conditions noted are these: NCI-H820 lung cancer; relative to untreated control at ≤1 μg/mL in a six day proliferation. The format is cell-based, human. On the procedure: Tumor cells were plated at 2000-5000 cells/well in 180 μL growth medium containing 10% FBS in 96-well plates, and cultured at 37° C. in a humidified incubator with 5% C02. The following day, titrations of antibodies or ADCs in 20 μL were added and cells were incubated for 6 days. Cell viability was determined using a CellTiter-Glo Luminescent Cell Viability Assay (Promega) according to the manufacturer's instructions.
Tumor cells were plated at 2000-5000 cells/well in 180 μL growth medium containing 10% FBS in 96-well plates, and cultured at 37° C. in a humidified incubator with 5% C02. The following day, titrations of ADCs in 20 μL were added and cells were incubated for 6 days. Cell viability was determined using a CellTiter-Glo Luminescent Cell Viability Assay (Promega) according to the manufacturer's instructions.
(In general: Cellular ATP, detected with luciferase, serves as a proxy for viable cell number.)

For a further assay, the system named is KP4. Description: Cytotoxicity assay (CellTiter-Glo, 6 days). The format is cell-based, human. The conditions noted are these: KP4 pancreatic cancer; relative to untreated control at ≤1 μg/mL in a six day proliferation. On the procedure:
(§2) Tumor cells were plated at 2000-5000 cells/well in 180 μL growth medium containing 10% FBS in 96-well plates, and cultured at 37° C. in a humidified incubator with 5% C02. The following day, titrations of antibodies or ADCs in 20 μL were added and cells were incubated for 6 days. Cell viability was determined using a CellTiter-Glo Luminescent Cell Viability Assay (Promega) according to the manufacturer's instructions. A non-binding, irrelevant negative control ADC conjugated to MMAE was also included in all assays to confirm that cell killing was antigen dependent.
(§3) Tumor cells were plated at 2000-5000 cells/well in 180 μL growth medium containing 10% FBS in 96-well plates, and cultured at 37° C. in a humidified incubator with 5% C02. The following day, titrations of ADCs in 20 μL were added and cells were incubated for 6 days. Cell viability was determined using a CellTiter-Glo Luminescent Cell Viability Assay (Promega) according to the manufacturer's instructions. A non-binding, irrelevant negative control ADC conjugated to MMAE was also included in all assays to confirm that cell killing was antigen-dependent.

The test system of another assay is A549. As to the kind of experiment: Cytotoxicity assay (CellTiter-Glo, 6 days). The format is cell-based, human. The conditions noted are these: A549 lung cancer; relative to untreated control at ≤1 μg/mL in a six day proliferation. On the procedure: as §2, §3
For a further assay, the system named is NCI-H1573. As to the kind of experiment: Cytotoxicity assay (CellTiter-Glo, 6 days). In kind it is cell-based, human. The conditions noted are these: NCI-H1573 lung cancer. Here is the method:
as §2, §3

Another assay deals with U87MG. As to the kind of experiment: Cytotoxicity assay (CellTiter-Glo, 6 days). The conditions noted are these: U-87MG glioblastoma; relative to untreated control at ≤1 μg/mL in a six day proliferation. In kind it is cell-based, human. On the procedure: as §2, §3
Another assay has as its system EBC-1. As to the kind of experiment: Cytotoxicity assay (CellTiter-Glo, 6 days). In kind it is cell-based, human. The conditions noted are these: EBC-1 lung cancer; relative to untreated control at ≤1 μg/mL in a six day proliferation. On the procedure:
as §2, §3

The subject of the next assay is NCI-H441. Description: Cytotoxicity assay (CellTiter-Glo, 6 days). In kind it is cell-based, human. The conditions noted are these: NCI-H441 lung cancer; relative to untreated control at ≤1 μg/mL in a six day proliferation. Here is the method: as §2, §3
In another assay the test system is Hs746T. As to the kind of experiment: Cytotoxicity assay (CellTiter-Glo, 6 days). In kind it is cell-based, human. On the procedure:
as §2, §3

Another assay relates to SW48. As to the kind of experiment: Cytotoxicity assay (CellTiter-Glo, 6 days). The format is cell-based, human. The conditions noted are these: SW48 colorectal cancer; relative to untreated control at ≤1 μg/mL in a six day proliferation. On the procedure: as §2, §3
Another assay concerns NCI-H1650. As to the kind of experiment: Cytotoxicity assay (CellTiter-Glo, 6 days). In kind it is cell-based, human. The conditions noted are these: NCI-H1650 lung cancer; relative to untreated control at ≤1 μg/mL in a six day proliferation. Here is the method:
as §2, §3

Regarding “ABBV-399: ADC comprised of the cMet targeting antibody ABT-700 conjugated to MMAE through a valine citrulline (vc) linker”, the “response” value in the assay on NSCLC adenocarcinoma (four patients, 2.7 mg/kg Q3W and erlotinib) was “partial responses”; in the assay on NSCLC adenocarcinoma (two patients, once every two weeks) it was “either a partial response or a complete response”; in assay [1], “partial responses”. For the same substance, the “in vivo activity, comparison” value is “more active than ABT-700 alone” in assay [2] (ABT-700 every seven days, ABBV-399 every four days, dose-dependent, FIG. 11A); “more active than ABT-700 alone” in assay [3]; “more active than ABT-700 alone” in [5]. Further, the “tumor response” value is “regression” in assay [2] (tumors relapsed after ABT-700 treatment, FIG. 12A) and “remained sensitive” in [4]. The substance further returned a radiographic progressive disease in the assay with cMet+ NSCLC (2/16 treated patients) of 12.5%. The partial responses in the assay with cMet+ NSCLC (3/16 treated patients) is 19%. Further, the stable disease in the assay on cMet+ NSCLC (6/16 treated patients) is reported as 37.5%. For the same substance, the “Maximal Killing” value in the assay on NCI-H820 amounted to 87%; in the assay with KP4, 53%; in the assay with A549 it was 22%; with NCI-H1573 (relative to untreated control at ≤1 μg/mL in a six day proliferation), 18%; in the assay with U87MG, 30%; in the assay with EBC-1, 96%. Further, the “Maximal Killing” value is 56% in the assay on NCI-H441; 87% with Hs746T (Hs746T gastric cancer, relative to untreated control at ≤1 μg/mL in a six day proliferation); 0% with SW48; 13% with NCI-H1650. In the assay on NCI-H1573 (read-out: ABBV-399 IC50, cell proliferation assay, Table 7B), the IC50 (as a rule, the concentration at which inhibition is half-maximal) was 18 nM. Also, the “inhibition of proliferation” value in the assay on Hs746T (MET-amplified Hs746T gastric cancer cells, FIG. 4) was “inhibited proliferation”.
